In patent US20260042753A1 (Merck Patent GmbH, priority 2019, published 2026):
Read-outs that look alike come from different tables or passages of the source.

What was measured:
c-Kit(V654A) = c-Kit(V654A) (Homo sapiens, UniProt P10721, V654A); assay: c-Kit(V654A) assay; format: biochemical
Procedure, shortened: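 Radiometric filter-binding read-out: after 3% phosphoric acid stop, peptide-incorporated 33P on filtermat scintillation-counted. Enzyme: human c-Kit V654A, residues 544–end, N-terminal GST fusion.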

[1] = molecular target: mutant cKIT (560-576 and V654A) in GIST430/654 cell line (Homo sapiens (Human), UniProt P10721, DEL560-576/V654A); assay: Cellular testing of cKIT mutant inhibitors: phospho-Y307-cKIT Luminex assay in GIST430/654 cells; format: cell-based; conditions: read-out: GIST 430/654 IC50
Sequence of mutant cKIT (560-576 and V654A) in GIST430/654 cell line (P10721 other isoform, or with tags, fused parts or gaps V654A/del 1-25/del 560-576 limits assumed): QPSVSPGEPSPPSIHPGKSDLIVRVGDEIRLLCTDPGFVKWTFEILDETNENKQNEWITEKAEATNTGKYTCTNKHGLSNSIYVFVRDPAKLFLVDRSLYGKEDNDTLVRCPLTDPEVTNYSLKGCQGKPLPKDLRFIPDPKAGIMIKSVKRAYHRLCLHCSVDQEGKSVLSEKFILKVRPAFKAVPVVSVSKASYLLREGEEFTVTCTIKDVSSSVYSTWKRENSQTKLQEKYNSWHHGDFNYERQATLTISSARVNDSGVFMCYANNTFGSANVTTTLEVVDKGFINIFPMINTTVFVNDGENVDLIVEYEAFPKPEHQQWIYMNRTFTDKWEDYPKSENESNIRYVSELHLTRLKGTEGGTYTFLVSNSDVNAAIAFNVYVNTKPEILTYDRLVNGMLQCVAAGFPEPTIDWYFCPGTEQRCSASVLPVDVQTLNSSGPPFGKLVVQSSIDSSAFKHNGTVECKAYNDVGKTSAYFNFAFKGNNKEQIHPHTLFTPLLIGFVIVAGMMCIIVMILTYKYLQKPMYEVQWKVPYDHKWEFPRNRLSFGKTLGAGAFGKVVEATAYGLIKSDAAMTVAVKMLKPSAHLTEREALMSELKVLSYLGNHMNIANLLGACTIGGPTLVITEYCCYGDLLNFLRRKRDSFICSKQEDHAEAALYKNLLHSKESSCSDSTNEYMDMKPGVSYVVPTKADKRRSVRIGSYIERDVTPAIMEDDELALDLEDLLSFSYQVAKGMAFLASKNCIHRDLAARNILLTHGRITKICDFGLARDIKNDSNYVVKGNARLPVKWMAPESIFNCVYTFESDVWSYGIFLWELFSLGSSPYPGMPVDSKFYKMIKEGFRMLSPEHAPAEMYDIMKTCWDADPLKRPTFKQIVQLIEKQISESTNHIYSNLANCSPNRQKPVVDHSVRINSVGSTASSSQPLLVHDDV
Procedure, shortened: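 GIST430/654 cells carrying constitutively active cKIT (Δ560-576/V654A) were grown with 100 nM imatinib, then treated with serially diluted compound for 45 min. Lysates were captured on anti-total-cKIT Luminex beads overnight at 4 °C and probed for phospho-Y307-cKIT. IC50 was fitted from percent of 0.3% DMSO control.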

[2] = Table 1, cKIT autophosphorylation, compounds 45 min
[3] = Table 2, isoxazole derivatives presently described
[4] = Table 2, corresponding triazole derivatives

Row | IC50 (c-Kit(V654A); [4]) | IC50 [1, 4] | Compound | further results
1 |  |  | [2H]C1([2H])N(C(=O)c2ccc(-c3cc(-c4n[nH]c5cc(OCCOC)c(F)cc45)on3)cc2)C([2H])([2H])C([2H])([2H])N(C2COC2)C1([2H])[2H] [A233, 5-fluoro-6-(2-methoxyethoxy)-3-(3-{4-[4-(oxetan-3-yl)(2,2,3,3,5,5,6,6-^2H8)piperazine-1-carbonyl]phenyl}-1,2-oxazol-5-yl)-1H-indazole] | IC50 (c-Kit(V654A); Table 1, 200 μM ATP): 0.001 µM; IC50 [1, 2]: 0.076 µM
2 |  |  | [2H]C1([2H])N(C(=O)c2ccc(-c3cc(-c4n[nH]c5cc(OCCO)c(F)cc45)on3)cc2)C([2H])([2H])C([2H])([2H])N(C2COC2)C1([2H])[2H] [A234, 2-{[5-fluoro-3-(3-{4-[4-(oxetan-3-yl)(2,2,3,3,5,5,6,6-^2H8)piperazine-1-carbonyl]phenyl}-1,2-oxazol-5-yl)-1H-indazol-6-yl]oxy}ethan-1-ol] | IC50 (c-Kit(V654A); Table 1, 200 μM ATP): 0.0009 µM; IC50 [1, 2]: 0.17 µM
3 |  |  | COCCOc1cc2[nH]nc(-c3cc(-c4ccc(C(=O)N5CCOC[C@H]5C)cc4)no3)c2cc1F [compound 114] | IC50 (c-Kit(V654A); [3]): 0.00091 µM; IC50 [1, 3]: 0.056 µM
4 | 0.0085 µM | 0.91 µM | COCCOc1cc2[nH]nc(-c3cc(-c4ccc(C(=O)N5CCC[C@H]5CO)cc4)no3)c2cc1F [drawing 57, reference compound] | 
5 | 0.0069 µM | 0.23 µM | COCCOc1cc2[nH]nc(-c3cn(-c4ccc(C(=O)N5CCOC[C@@H]5C)cc4)nn3)c2cc1F [reference compound] | 
6 | 0.0025 µM | 0.079 µM | COCCOc1cc2[nH]nc(-c3cn(-c4ccc(C(=O)N5CCC[C@H]5C(C)(C)O)cc4)nn3)c2cc1F [reference compound] | 
7 | 0.015 µM | 0.84 µM | COCCOc1cc2[nH]nc(-c3cn(-c4ccc(C(=O)N5CCN(C)CC5)cc4)nn3)c2cc1F [reference compound] | 
8 | 0.0043 µM | 0.23 µM | COCCOc1cc2[nH]nc(-c3cn(-c4ccc(C(=O)N5CCOC[C@H]5C)cc4)nn3)c2cc1F [reference compound] | 
9 | 0.0061 µM | 0.32 µM | COCCOc1ccc2c(-c3cn(-c4ccc(C(=O)N5CCN(C)C[C@@H]5C)cc4)nn3)n[nH]c2c1 [reference compound] | 
10 | 0.021 µM | 0.12 µM | COCCOc1cc2[nH]nc(-c3cn(-c4ccc(C5CCNCC5(C)C)cc4)nn3)c2cc1F (stereo not shown) [reference compound] | 
11 | 0.015 µM | 1 µM | COCCOc1cc2[nH]nc(-c3cn(-c4ccc(N5CCN(C)CC5)cc4)nn3)c2cc1F [reference compound] | 
12 | 0.013 µM | 2.2 µM | COCCOc1cc2[nH]nc(-c3cn(-c4ccc(C(=O)N5CC(C#N)C5)cc4)nn3)c2cc1F [reference compound] | 
13 | 0.011 µM | 0.58 µM | COCCOc1cc2[nH]nc(-c3cn(-c4ccc(C(=O)N5CC(F)C5)cc4)nn3)c2cc1F [reference compound] | 
14 | 0.0075 µM | 0.24 µM | COCCOc1cc2[nH]nc(-c3cn(-c4ccc(C(=O)N5CC[C@H]5C(C)(C)O)cc4)nn3)c2cc1F [reference compound] | 
15 | 0.013 µM | 0.87 µM | COCCOc1cc2[nH]nc(-c3cn(-c4ccc(C(=O)N5CC(N6CCOCC6)C5)c(C)c4)nn3)c2cc1F [reference compound] | 
16 | 0.02 µM | 0.7 µM | COCCOc1cc2[nH]nc(-c3cn(-c4ccc(C(=O)N5CC(N6CCOCC6)C5)c(F)c4)nn3)c2cc1F [reference compound] | 
17 | 0.0023 µM | 0.14 µM | COCCOc1cc2[nH]nc(-c3cn(-c4ccc(C(=O)N5Cc6ccncc6C5)cc4)nn3)c2cc1F [reference compound] | 
18 | 0.005 µM | 0.47 µM | COCCOc1cc2[nH]nc(-c3cn(-c4ccc(C(=O)N5C[C@H]6COC[C@H]6C5)cc4)nn3)c2cc1F [reference compound] | 
19 | 0.0026 µM | 0.16 µM | COCCOc1cc2[nH]nc(-c3cn(-c4ccc(C(=O)N5CC(c6ccncc6)C5)cc4)nn3)c2cc1F [reference compound] | 
20 | 0.0078 µM | 0.79 µM | COCCOc1cc2[nH]nc(-c3cn(-c4ccc(C(=O)N5CCN(C6COC6)CC5)cc4)nn3)c2cc1F [reference compound] | 
